From patent publication US9789202B2, “Method for treating cancer using an interferon alpha conjugate” (HANMI SCIENCE CO., LTD., priority 2011, dated 2017)

What was measured:
[1] = tested on: human pancreatic cancer cells (BxPC3); assay: In vivo anti-cancer effect in nude mice subcutaneously transplanted with human pancreatic cancer cells (BxPC3); design: species or system Athymic BALB/c nude mice; conditions: BxPC3 xenograft, 4 weeks; gemcitabine 30 mg/kg Q3D x 4 weeks i.v.; conjugate or PEG interferon alpha 30 mcg/kg QW x 4 weeks s.c.; combination at the same doses
Protocol: In order to measure the in vivo anti-cancer effect of the interferon alpha conjugate prepared in Example 1, changes in the tumor size were examined in the mice subcutaneously transplanted with human pancreatic cancer cells (BxPC3). 5-week old Athymic BALB/c nude mice were subcutaneously injected with 1×10^8/4 mL of BxPC3 cells cultured in vitro, and then cultured. […] After administration of the experimental substances, changes in the tumor size of each group were measured for 4 weeks, and tumor inhibition rate relative to the control group was determined (Table 3).

[2] = tested on: human pancreatic cancer cells (Panc-1); assay: In vivo anti-cancer effect in nude mice subcutaneously transplanted with human pancreatic cancer cells (Panc-1); design: species or system Athymic BALB/c nude mice; conditions: Panc-1 xenograft, measured for 4 weeks; gemcitabine 40 mg/kg Q3D x 3 weeks i.v.; conjugate or PEG interferon alpha 30 mcg/kg QW x 3 weeks s.c.; combination at the same doses
Protocol: 5-week old Athymic BALB/c nude mice were subcutaneously injected with 1×10^8/4 mL of Panc-1 cells cultured in vitro, and then cultured. Thereafter, the mice were subcutaneously transplanted with solid cancer having a size of 30 mm^2. Then, the mice were divided into 5 groups (G1, G2, G3, G4, G5) of six mice each according to the size of cancer subcutaneously transplanted.
Single administrations of a control group (Vehicle), gemcitabine (40 mg/kg, Q3D, 3 weeks, intravenous injection), PEG-modified interferon alpha (30 mcg/kg, QW×3 weeks, subcutaneous injection), and interferon alpha conjugate of the present invention (30 mcg/kg, QW, 3 weeks, subcutaneous injection), and co-administration of gemcitabine (40 mg/kg, Q3D, 3 weeks, intravenous injection) and interferon alpha conjugate of the present invention (30 mcg/kg, QW, 3 weeks, subcutaneous injection) to the groups were performed. After administration of the experimental substances for 3 weeks, changes in the tumor size of each group were measured for 4 weeks, and tumor inhibition rate relative to the control group was determined (Table 4).

[3] = tested on: human pancreatic cancer cells (Miapaca-2); assay: In vivo anti-cancer effect in nude mice subcutaneously transplanted with human pancreatic cancer cells (Miapaca-2); design: species or system Athymic BALB/c nude mice; conditions: Miapaca-2 xenograft, measured for 4 weeks; gemcitabine 40 mg/kg Q3D x 4 weeks i.v.; conjugate or PEG interferon alpha 30 mcg/kg QW x 4 weeks s.c.; combinations at the same doses
Protocol: 5-week old Athymic BALB/c nude mice were subcutaneously injected with 1×10^8/4 mL of Miapaca-2 cells cultured in vitro, and then cultured. Thereafter, the mice were subcutaneously transplanted with solid cancer having a size of 30 mm^2. Then, the mice were divided into 5 groups (G1, G2, G3, G4, G5) of seven mice each according to the size of cancer subcutaneously transplanted.
Single administrations of a control group (Vehicle), gemcitabine (40 mg/kg, Q3D, 3 weeks, intravenous injection), PEG-modified interferon alpha (30 mcg/kg, QW×4 weeks, subcutaneous injection), and interferon alpha conjugate of the present invention (30 mcg/kg, QW, 4 weeks, subcutaneous injection), and co-administration of gemcitabine (40 mg/kg, Q3D, 4 weeks, intravenous injection) and interferon alpha conjugate of the present invention (30 mcg/kg, QW, 4 weeks, subcutaneous injection) to the groups were performed. After administration of the experimental substances for 3 weeks, changes in the tumor size of each group were measured for 4 weeks, and tumor inhibition rate relative to the control group was determined (Table 5).

[4] = tested on: pancreatic cancer; conditions: cited from earlier work
[5] = tested on: Daudi cells; assay: In vitro test on anti-proliferative efficacy in Daudi cells (CCK-8); assay type: cell-based, human; conditions: inhibition of Daudi cell proliferation, incubation 72 hours, CCK-8 absorbance at 450 nm
Protocol: Daudi cells were used, and RPMI1640 supplemented with 10% FBS and 10% PS was used as a culture medium and an experimental medium. Interferon alpha and interferon alpha conjugate of the present invention were diluted 4-fold with the experimental medium for 10 concentrations in 96-well round bottom plates. Each 50 μL of the diluted experimental medium was transferred to 96-well flat bottom plates. Daudi cells were centrifuged at 1000 rpm for 5 minutes, and then washed with 50 mL of PBS in a cornical tube. The cells were centrifuged at 1000 rpm for 5 minutes, and the experimental medium was added thereto, followed by counting the number of cells. Daudi cells were diluted to a concentration of 5×10^5 cell/mL, and then 100 μL was added to each well, followed by incubation at 37° C. for 72 hours. Then, 20 μL of CCK-8 was added to each well, and after 3 hours, absorbance was measured at 450 nm.
In vitro inhibitory effects of interferon alpha and interferon alpha conjugate of the present invention (long-acting interferon alpha conjugate) on cancer cell proliferation were examined by EC50 (Table 1, FIG. 1).

[6] = tested on: human ovarian cancer cells (SK-OV-3); assay: In vivo anti-cancer effect in nude mice subcutaneously transplanted with human ovarian cancer cells (SK-OV-3); design: species or system Athymic BALB/c nude mice; conditions: SK-OV-3 xenograft, 4 weeks, subcutaneous injection; interferon alpha 30 mcg/kg (Q1D*5)*4 weeks; PEG interferon alpha and conjugate 150 mcg/kg QW x 4 weeks
Protocol: In order to measure the in vivo anti-cancer effect of the interferon alpha conjugate prepared in Example 1, changes in the tumor size were examined in the mice subcutaneously transplanted with human ovarian cancer cells (SK-OV-3).
5-week old Athymic BALB/c nude mice were subcutaneously injected with 1×10^8/4 mL of SK-OV-3 cells cultured in vitro, and then cultured. Thereafter, the mice were subcutaneously transplanted with solid cancer having a size of 30 mm^2. Then, the mice were divided into 4 groups (G1, G2, G3, G4) of five mice each according to the size of cancer subcutaneously transplanted.
Single administrations of a control group (Vehicle), interferon alpha (30 mcg/kg, Q1D×5 times×4 weeks, subcutaneous injection), PEG-modified interferon alpha (150 mcg/kg, QW×4 weeks, subcutaneous injection), and interferon alpha conjugate of the present invention (150 mcg/kg, QW×4 weeks, subcutaneous injection) to the groups were performed. After administration of the experimental substances, changes in the tumor size of each group were measured for 4 weeks, and tumor inhibition rate relative to the control group was determined (Table 2).

EC50 [5]	Molecule	Tumor inhibition rate (%, relative to vehicle) [1]	Tumor inhibition rate (%, relative to vehicle) [2]	Tumor inhibition rate (%, relative to vehicle) [3]	median overall survival ([4]; advanced pancreatic cancer, single administration)	1-year survival rate of pancreatic cancer patients ([4]; metastatic pancreatic cancer)	Tumor inhibition rate (%, relative to vehicle) [6]
	Nc1ccn([C@@H]2O[C@H](CO)[C@@H](O)C2(F)F)c(=O)n1 [Gemcitabine, 2′-deoxy-2′,2′-difluoro cytidine]	20%	60%	17%	5.7 months	18%	
0.0217 ng/mL	Interferon alpha: interferon alpha prepared according to Korean Patent No. 10-0360594; human interferon alpha-2b						63.84%
